Where “and” joins values, the source holds several entries; their conditions need not be identical. Identical values can stand only once. Entries after “also recorded” stand apart in the source; their conditions may differ. Like-named read-outs stand apart in the source and are kept apart here.
Experiments:
mKOR [1] = target: T1, mKOR (Mus musculus, UniProt P33534); assay: Radioligand competition binding ([125I]IBNtxA), CHO membranes, mKOR; details: vs 125IBNtxA (0.1 nM), mean ± SEM
T1 construct: expressed in transfected cells

[2] = target: T2, rat kappa opioid receptor (rKOR) (Rattus norvegicus, UniProt P34975); assay: BRET assay, arrestin recruitment, rKOR; format: cell-based; details: BRET
T2 construct: expressed in transfected cells; host or cells: HEK-293T, transient (PEI), with BRET sensor cDNAs

mDOR [3] = target: T3, mDOR (Mus musculus, UniProt P32300); assay: Radioligand competition binding ([125I]IBNtxA), CHO membranes, mDOR; details: vs 125IBNtxA (0.1 nM), CHO membranes, mean ± SEM
T3 construct: expressed in transfected cells

hMOR [4] = target: T4, hMOR (Homo sapiens, UniProt P35372); assay: cell-based; format: cell-based
T4 construct: expressed in transfected cells; host or cells: HEK 293T (ATCC CRL-11268), transient

hMOR [5] = target: T4, hMOR; assay: Tango β-arrestin recruitment assay, hMOR; format: cell-based; details: Tango
[6] = target: T5, mouse mu opioid receptor (mMOR) (Mus musculus, UniProt P42866); assay: cell-based; format: cell-based
T5 construct: expressed in transfected cells; host or cells: HEK-293T, transient (PEI), with BRET sensor cDNAs

mDOR [7] = target: T3, mDOR; assay: [35S]GTPγS functional assay, mDOR; format: biochemical
mMOR [8] = target: T6, mMOR (Mus musculus, UniProt P42866); assay: Radioligand competition binding ([125I]IBNtxA), CHO membranes, mMOR; details: vs 125IBNtxA (0.1 nM), mean ± SEM
T6 construct: expressed in transfected cells

[9] = target: T7, mouse delta opioid receptor (mDOR) (Mus musculus, UniProt P32300); assay: BRET assay, G-protein activation, mDOR; format: cell-based
T7 construct: expressed in transfected cells; host or cells: HEK-293T, transient (PEI), with BRET sensor cDNAs

hDOR [10] = target: T8, hDOR (Homo sapiens, UniProt P41143); assay: cAMP inhibition assay, hDOR; format: cell-based; set-up: expressed in transfected cells
hKOR [11] = target: T9, hKOR (Homo sapiens, UniProt P41145); assay: cAMP inhibition assay (GloSensor, HEK 293T), hKOR; format: cell-based; details: for Bias factor toward G protein, hKOR: cAMP inhibition vs Tango, against U50,488H as control; for EC50: read-out: Gi EC50 hKOR
T9 construct: expressed in transfected cells; host or cells: HEK 293T (ATCC CRL-11268), transient

[12] = target: T2, rat kappa opioid receptor (rKOR); assay: BRET assay, G-protein activation, rKOR; format: cell-based; details: for EC50: read-out: Gi EC50 rKOR
C57BL/6J mice [13] = assay: 55° C. warm-water tail-withdrawal assay; format: in vivo, mouse; details: icv, 55° C. tail withdrawal
Description: Tail-withdrawal assay The 55° C. warm-water tail-withdrawal assay was conducted in mice as a measure of acute thermal antinociception as described previously (Reilley et al., 2010). Briefly, each mouse was tested for baseline tail-withdrawal latency prior to drug administration. Following drug administration, the latency for each mouse to withdraw the tail was measured every 10 minutes until latency returned to the baseline value. A maximum response time of 15 seconds was utilized to prevent tissue damage. […] Data are reported as percent antinociception, calculated by the equation: % antinociception=100×[(test latency−baseline latency)/(15−baseline latency)]. This was utilized to account for innate variability between mice. Compounds were administered either, […] (IP) or intracerebroventricular (icv) and the analgesic action of compounds was assessed at the peak effect as described previously (Haley and McCormick, 1957). In brief, mice were anesthetized using isoflurane. A small incision was made, and the drug (2 μl/mouse) was injected (using a 10 μL Hamilton syringe fitted to a 27-gauge needle) into the right lateral ventricle at the following coordinates: 2 mm caudal to bregma, 2 mm lateral to sagittal suture, and 2 mm in depth. Mice were tested for analgesia at the peak effect post injection.

Y312W-hKOR [14] = target: T10, Y312W-hKOR (Homo sapiens, UniProt P41145, Y312W); assay: cAMP inhibition assay, Y312W-hKOR mutant; format: cell-based; set-up: expressed in transfected cells; host or cells: HEK 293T (inferred from the general cAMP method)
mMOR [15] = target: T6, mMOR; assay: [35S]GTPγS functional assay, mMOR; format: biochemical; details: for EC50: nM ± SEM
hDOR [16] = target: T8, hDOR; assay: Tango β-arrestin recruitment assay, hDOR; format: cell-based; set-up: expressed in transfected cells; host or cells: HTLA cells expressing TEV fused-beta-Arrestin2
[17] = target: T5, mouse mu opioid receptor (mMOR); assay: cell-based; format: cell-based; remark: listed apart in the source
Y312W-hKOR [18] = target: T10, Y312W-hKOR; assay: Tango-arrestin recruitment assay, Y312W-hKOR mutant; format: cell-based; set-up: expressed in transfected cells; details: Tango, compared with wild-type KOR
mKOR [19] = target: T1, mKOR; assay: [35S]GTPγS functional assay, mKOR; format: biochemical; details: for EC50: nM ± SEM
hKOR [20] = target: T9, hKOR; assay: Tango β-arrestin recruitment assay, hKOR; format: cell-based; details: for Arrestin pEC50±SEM hKOR / EC50: WT-hKOR
C57BL/6J mice [21] = details: icv, same assay (Aldrich et al., 2014); cited from earlier work
C57BL/6J mice [22] = assay: Conditioned place preference and aversion; details: MP1207 100 nmol icv, morphine 10 mg/kg IP, U50,488h 30 mg/kg IP
C57 mice = assay: Respiratory rate (CLAMS); details: 10 mg/kg IP or 30 nmol icv, 10 mg/kg
[23] = target: T7, mouse delta opioid receptor (mDOR); assay: BRET assay, arrestin recruitment, mDOR; format: cell-based; details: mDOR, BRET

N=C(N)NCc1cccc(C(=O)N[C@@H]2CCC3C4Cc5ccc(O)c6c5[C@@]3(CCN4CC3CC3)C2O6)c1 (stereo partly drawn) [MP1208, N-((7R,12bS)-3-(Cyclopropylmethyl)-9-hydroxy-2,3,4,4a,5,6,7,7a-octahydro-1H-4,12-methanobenzofuro[3,2-e]isoquinolin-7-yl)-3-(guanidinomethyl)benzamide]
Ki (mKOR [1]): 0.28 nM
arrestin recruitment at rKOR [2]: no recruitment of βarrestin-2; also recorded: no arrestin recruitment was observed
Ki (mDOR [3]): 19.3 nM
EC50 (hMOR [4]): 1.86 nM
Emax (hMOR [4]; HEK-293T, read-out: Gi Emax hMOR): 42 ± 1.3%
EC50 (hMOR [4]; read-out: Gi EC50 hMOR): 0.008 nM
arrestin recruitment at hMOR (hMOR [5]): no recruitment of arrestin was seen; also recorded: no arrestin recruitment was observed
arrestin recruitment at mMOR [6]: no recruitment of βarrestin-2; also recorded: no arrestin recruitment was observed
Emax (mDOR [7]): 10 to 15%
efficacy at mDOR (mDOR [7]; [35S]GTPγS): only weak efficacy
IC50 (mDOR [7]; [35S]GTPγS, antagonism vs 100 nM agonist): 11.4 ± 0.3 nM
Ki (mMOR [8]): 0.34 ± 0.01 nM
EC50 ([9]; mDOR, BRET): 26.6 nM
G-Protein activation pEC50 ± SEM ([9]; mDOR, BRET): 7.6 ± 0.20
Emax ([9]; read-out: G-Protein activation Emax % ± SEM): 58 ± 3.3%
cAMP inhibition pEC50 ± SEM (hDOR [10]; hDOR): 8.6 ± 0.13
Emax (hDOR [10]; read-out: cAMP inhibition Emax % ± SEM): 39 ± 1.8%
Emax (hKOR [11]; HEK-293T, read-out: Gi Emax hKOR): 96 ± 1.9%
Gi pEC50±SEM hKOR (hKOR [11]; cAMP inhibition): 9.9±0.07
Bias factor toward G protein, hKOR (hKOR [11]): 23
EC50 (hKOR [11]; cAMP inhibition): 0.14 nM
Gi pEC50±SEM rKOR ([12]; BRET): 8.97±0.29
EC50 ([12]; BRET): 1.1 nM
Emax ([12]; read-out: Gi Emax rKOR): 40 ± 2.4%
antinociceptive ED50 (95% CI) (C57BL/6J mice [13]): 19.8 (12.6-34.0) nmol and 19.8 nmol
Gi pEC50±SEM Y312W-hKOR (Y312W-hKOR [14]; cAMP inhibition): 10.44±0.05
Emax (Y312W-hKOR [14]; read-out: Gi Emax Y312W-hKOR): 97 ± 1%
Emax (mMOR [15]): 54 ± 0.7%
EC50 (mMOR [15]; [35S]GTPγS): 1.1 nM and 1.13 nM
Arrestin recruitment pEC50 ± SEM (hDOR [16]; hDOR, Tango): 5.5 ± 0.27
EC50 (hDOR [16]; hDOR, Tango): 3620 nM
Emax (hDOR [16]; read-out: Arrestin recruitment Emax % ± SEM): 62 ± 16.7%
Gi pEC50±SEM mMOR [17]: 8.64±0.29
Emax ([17]; read-out: Gi Emax mMOR): 41 ± 3%
arrestin recruitment at Y312W-hKOR (Y312W-hKOR [18]): further reduction of arrestin recruitment; also recorded: reduced arrestin measurement
Emax (mKOR [19]): 43 ± 0.8%
EC50 (mKOR [19]; [35S]GTPγS): 1.4 nM and 1.36 nM
Emax (hKOR [20]): 48 ± 2.4%
Arrestin pEC50±SEM hKOR (hKOR [20]; Tango): 7.79±0.14
EC50 (hKOR [20]; Tango): 16.4 nM

CN1CC[C@]23c4c5ccc(O)c4O[C@H]2[C@@H](O)C=C[C@H]3[C@H]1C5 [Morphine, reference compound]
antinociceptive ED50 (95% CI), reported (C57BL/6J mice [21]): 2.35 (1.13-5.03) nmol and 2.35 nmol
conditioned place preference or aversion (CPP/CPA) (C57BL/6J mice [22]): place preference
respiratory rate (C57 mice): significant reduction in respiratory rates
respiratory rate (C57 mice; listed as morphine): decreased respiratory rate

O=C(N[C@@H]1C=CC2[C@H]3Cc4ccc(O)c5c4[C@@]2(CCN3CC2CC2)[C@H]1O5)c1cccc(I)c1 (stereo partly drawn) [MP1104, reference compound]
Ki (mKOR [1]): 0.0064 nM
Arrestin pEC50±SEM rKOR [2]: 8.94±0.07
EC50 [2]: 1.14 nM
Arrestin Emax rKOR ([2]; normalized to Emax of U50,488H): 89±2.6
Ki (mDOR [3]): 0.08 ± 0.01 nM
Bias factor toward G protein, hMOR (hMOR [4]): 0.57 and 0.6
Gi Emax hMOR (hMOR [4]): 94±1
Gi pEC50±SEM hMOR (hMOR [4]): 10.13±0.05
EC50 (hMOR [4]; read-out: Gi EC50 hMOR): 0.074 nM
Arrestin pEC50±SEM hMOR (hMOR [5]): 9.24±0.08
EC50 (hMOR [5]): 0.573 nM
Arrestin Emax hMOR (hMOR [5]; normalized to Emax of DAMGO): 90±2.28
Arrestin Emax mMOR [6]: 53±1.6
Arrestin pEC50±SEM mMOR [6]: 9.55±0.12
EC50 ([6]; read-out: Arrestin EC50 mMOR): 0.285 nM
Arrestin recruitment pEC50 ± SEM [23]: 7.6 ± 0.11
EC50 [23]: 26 nM
Arrestin recruitment Emax % ± SEM ([23]; normalized to DPDPE): 40 ± 1.7%
EC50 (mDOR [7]; [35S]GTPγS, nM ± SEM): 0.41 ± 0.11 nM
mDOR Emax (mDOR [7]; [35S]GTPγS, relative to DPDPE): 88 ± 0%
Ki (mMOR [8]): 0.021 nM
EC50 ([9]; mDOR, BRET): 1.4 nM
G-Protein activation pEC50 ± SEM ([9]; mDOR, BRET): 8.9 ± 0.06
G-Protein activation Emax % ± SEM ([9]; mDOR, BRET, normalized to DPDPE): 91 ± 1.7%
EC50 (hDOR [10]; hDOR): 0.4 nM
cAMP inhibition pEC50 ± SEM (hDOR [10]; hDOR): 9.4 ± 0.04
cAMP inhibition Emax % ± SEM (hDOR [10]; hDOR, normalized to DPDPE or DADLE): 99 ± 1.1%
Gi pEC50±SEM hKOR (hKOR [11]; cAMP inhibition): 11.74±0.04
Bias factor toward G protein, hKOR (hKOR [11]): 0.18 and 0.2
Gi Emax hKOR (hKOR [11]; cAMP inhibition, normalized to Emax of U50,488H): 107±1
EC50 (hKOR [11]; cAMP inhibition): 0.00184 nM
Gi pEC50±SEM rKOR ([12]; BRET): 10.14±0.04
Bias factor toward G-protein, rKOR ([12]; BRET assays, against U50,488H as control): 0.23
Gi Emax rKOR ([12]; BRET, normalized to Emax of U50,488H): 93±1
EC50 ([12]; BRET): 0.073 nM
EC50 (mMOR [15]; [35S]GTPγS): 0.21 ± 0.03 nM
mMOR Emax (mMOR [15]; [35S]GTPγS, relative to DAMGO): 103 ± 2%
Arrestin recruitment pEC50 ± SEM (hDOR [16]; hDOR, Tango): 8.4 ± 0.06
EC50 (hDOR [16]; hDOR, Tango): 3.73 nM
Arrestin recruitment Emax % ± SEM (hDOR [16]; hDOR, Tango, normalized to DPDPE or DADLE): 189 ± 5.5%
Bias factor toward G-protein, mMOR [17]: 0.1
Gi Emax mMOR [17]: 62±2
Gi pEC50±SEM mMOR [17]: 9.2±0.11
EC50 ([17]; read-out: Gi EC50 mMOR): 0.66 nM
EC50 (mKOR [19]; [35S]GTPγS): 0.027 ± 0.002 nM
mKOR Emax (mKOR [19]; [35S]GTPγS, relative to U50,488H): 104 ± 2%
Arrestin pEC50±SEM hKOR (hKOR [20]; Tango): 10.4±0.06
EC50 (hKOR [20]; Tango): 0.0394 nM
Arrestin Emax hKOR (hKOR [20]; Tango, normalized to Emax of U50,488H): 117±2

Reference: patent US11613547B2 (priority 2019, dated 2023)
